Numbers after ± are expanded uncertainties.
Assay: molar heat capacity at constant volume
Conditions: Liquid, Vacuum adiabatic calorimetry

Structure (SMILES): C=C(F)C(F)(F)F [2,3,3,3-tetrafluoro-1-propene]
- molar heat capacity at constant volume (240.93 K, 2261 kPa): 92.26 ± 1.6 J/K/mol
- molar heat capacity at constant volume (241.09 K, 2247 kPa): 91.8 ± 1.6 J/K/mol
- molar heat capacity at constant volume (243.43 K, 4295 kPa): 92.26 ± 1.6 J/K/mol
- molar heat capacity at constant volume (243.57 K, 4255 kPa): 92.26 ± 1.6 J/K/mol
- molar heat capacity at constant volume (245.94 K, 6342 kPa): 92.37 ± 1.6 J/K/mol
- molar heat capacity at constant volume (246.04 K, 6272 kPa): 92.15 ± 1.6 J/K/mol
- molar heat capacity at constant volume (248.38 K, 8336 kPa): 92.72 ± 1.7 J/K/mol
- molar heat capacity at constant volume (248.49 K, 8272 kPa): 93.06 ± 1.7 J/K/mol
- molar heat capacity at constant volume (250.77 K, 10288 kPa): 93.29 ± 1.7 J/K/mol
- molar heat capacity at constant volume (250.92 K, 10256 kPa): 93.4 ± 1.7 J/K/mol
- molar heat capacity at constant volume (255.49 K, 1804 kPa): 95.79 ± 1.7 J/K/mol
- molar heat capacity at constant volume (255.68 K, 1821 kPa): 96.48 ± 1.7 J/K/mol
- molar heat capacity at constant volume (257.93 K, 3569 kPa): 97.51 ± 1.7 J/K/mol
- molar heat capacity at constant volume (258.1 K, 3572 kPa): 96.48 ± 1.7 J/K/mol
- molar heat capacity at constant volume (260.34 K, 5312 kPa): 97.62 ± 1.7 J/K/mol
- molar heat capacity at constant volume (260.51 K, 5317 kPa): 97.16 ± 1.7 J/K/mol
- molar heat capacity at constant volume (262.77 K, 7065 kPa): 97.51 ± 1.7 J/K/mol
- molar heat capacity at constant volume (262.92 K, 7055 kPa): 98.53 ± 1.8 J/K/mol
- molar heat capacity at constant volume (265.3 K, 8891 kPa): 98.65 ± 1.7 J/K/mol
- molar heat capacity at constant volume (265.35 K, 8807 kPa): 98.87 ± 1.7 J/K/mol
- molar heat capacity at constant volume (267.77 K, 10554 kPa): 98.87 ± 1.8 J/K/mol
- molar heat capacity at constant volume (267.88 K, 10750 kPa): 99.22 ± 1.7 J/K/mol
- molar heat capacity at constant volume (270.17 K, 12276 kPa): 99.56 ± 1.8 J/K/mol
- molar heat capacity at constant volume (271.12 K, 1842 kPa): 101.38 ± 1.8 J/K/mol
- molar heat capacity at constant volume (273.54 K, 1673 kPa): 102.07 ± 1.8 J/K/mol
- molar heat capacity at constant volume (273.64 K, 3435 kPa): 101.5 ± 1.8 J/K/mol
- molar heat capacity at constant volume (275.98 K, 3181 kPa): 102.07 ± 1.8 J/K/mol
- molar heat capacity at constant volume (276.14 K, 5012 kPa): 101.27 ± 1.8 J/K/mol
- molar heat capacity at constant volume (278.43 K, 4690 kPa): 101.95 ± 1.8 J/K/mol
- molar heat capacity at constant volume (278.65 K, 6595 kPa): 102.3 ± 1.8 J/K/mol
- molar heat capacity at constant volume (280.94 K, 6231 kPa): 102.64 ± 1.8 J/K/mol
- molar heat capacity at constant volume (281.16 K, 8178 kPa): 101.61 ± 1.8 J/K/mol
- molar heat capacity at constant volume (283.46 K, 7781 kPa): 102.75 ± 1.8 J/K/mol
- molar heat capacity at constant volume (283.66 K, 9754 kPa): 102.52 ± 1.8 J/K/mol
- molar heat capacity at constant volume (285.91 K, 9285 kPa): 102.98 ± 1.8 J/K/mol
- molar heat capacity at constant volume (286.19 K, 11346 kPa): 103.09 ± 1.7 J/K/mol
- molar heat capacity at constant volume (288.36 K, 10789 kPa): 104.01 ± 1.8 J/K/mol
- molar heat capacity at constant volume (289.3 K, 1701 kPa): 105.15 ± 1.8 J/K/mol
- molar heat capacity at constant volume (291.52 K, 1716 kPa): 105.72 ± 1.8 J/K/mol
- molar heat capacity at constant volume (291.84 K, 3037 kPa): 105.49 ± 1.8 J/K/mol
- molar heat capacity at constant volume (294.09 K, 3043 kPa): 106.4 ± 1.8 J/K/mol
- molar heat capacity at constant volume (294.38 K, 4378 kPa): 105.37 ± 1.8 J/K/mol
- molar heat capacity at constant volume (296.67 K, 4372 kPa): 106.4 ± 1.8 J/K/mol
- molar heat capacity at constant volume (296.96 K, 5740 kPa): 105.49 ± 1.8 J/K/mol
- molar heat capacity at constant volume (299.24 K, 5702 kPa): 106.97 ± 1.8 J/K/mol
- molar heat capacity at constant volume (299.7 K, 7182 kPa): 105.94 ± 1.7 J/K/mol
- molar heat capacity at constant volume (301.83 K, 7034 kPa): 106.86 ± 1.8 J/K/mol
- molar heat capacity at constant volume (302.46 K, 8635 kPa): 106.74 ± 1.8 J/K/mol
- molar heat capacity at constant volume (304.42 K, 8365 kPa): 107.54 ± 1.8 J/K/mol
- molar heat capacity at constant volume (305.12 K, 10039 kPa): 106.29 ± 1.8 J/K/mol
- molar heat capacity at constant volume (307.01 K, 9699 kPa): 108 ± 1.8 J/K/mol
- molar heat capacity at constant volume (307.78 K, 11440 kPa): 106.97 ± 1.8 J/K/mol
- molar heat capacity at constant volume (309.61 K, 11035 kPa): 108.34 ± 1.8 J/K/mol
- molar heat capacity at constant volume (310.44 K, 12837 kPa): 107.54 ± 1.8 J/K/mol
- molar heat capacity at constant volume (312.2 K, 12365 kPa): 108.8 ± 1.8 J/K/mol
- molar heat capacity at constant volume (312.59 K, 3164 kPa): 108.57 ± 1.8 J/K/mol
- molar heat capacity at constant volume (315.28 K, 1983 kPa): 109.37 ± 1.8 J/K/mol
- molar heat capacity at constant volume (315.29 K, 4301 kPa): 108.8 ± 1.8 J/K/mol
- molar heat capacity at constant volume (317.99 K, 5437 kPa): 108.91 ± 1.8 J/K/mol
- molar heat capacity at constant volume (318.03 K, 3065 kPa): 109.71 ± 1.8 J/K/mol
- molar heat capacity at constant volume (320.68 K, 6570 kPa): 110.62 ± 1.8 J/K/mol
- molar heat capacity at constant volume (320.8 K, 4151 kPa): 110.05 ± 1.8 J/K/mol
- molar heat capacity at constant volume (323.36 K, 7700 kPa): 110.28 ± 1.8 J/K/mol
- molar heat capacity at constant volume (323.57 K, 5240 kPa): 110.62 ± 1.8 J/K/mol
- molar heat capacity at constant volume (326.04 K, 8827 kPa): 110.62 ± 1.8 J/K/mol
- molar heat capacity at constant volume (326.35 K, 6332 kPa): 111.42 ± 1.8 J/K/mol
- molar heat capacity at constant volume (328.72 K, 9952 kPa): 112.22 ± 1.8 J/K/mol
- molar heat capacity at constant volume (329.14 K, 7427 kPa): 112.67 ± 1.8 J/K/mol
- molar heat capacity at constant volume (331.41 K, 11079 kPa): 112.9 ± 1.8 J/K/mol
- molar heat capacity at constant volume (331.93 K, 8524 kPa): 113.36 ± 1.8 J/K/mol
- molar heat capacity at constant volume (334.09 K, 12201 kPa): 113.24 ± 1.8 J/K/mol
- molar heat capacity at constant volume (334.72 K, 9619 kPa): 113.47 ± 1.8 J/K/mol
- molar heat capacity at constant volume (337.49 K, 10709 kPa): 113.7 ± 1.8 J/K/mol
- molar heat capacity at constant volume (340.26 K, 11796 kPa): 114.61 ± 1.8 J/K/mol

Structure (SMILES): CCC [propane]
- molar heat capacity at constant volume (236.31 K, 2219 kPa): 65.79 ± 1.3 J/K/mol
- molar heat capacity at constant volume (238.69 K, 4211 kPa): 66.23 ± 1.3 J/K/mol
- molar heat capacity at constant volume (241.04 K, 6180 kPa): 66.67 ± 1.3 J/K/mol
- molar heat capacity at constant volume (243.36 K, 8127 kPa): 66.58 ± 1.3 J/K/mol
- molar heat capacity at constant volume (245.69 K, 10074 kPa): 66.94 ± 1.3 J/K/mol
- molar heat capacity at constant volume (250.09 K, 2085 kPa): 67.6 ± 1.4 J/K/mol
- molar heat capacity at constant volume (252.35 K, 3780 kPa): 68.13 ± 1.4 J/K/mol
- molar heat capacity at constant volume (254.59 K, 5476 kPa): 68.13 ± 1.4 J/K/mol
- molar heat capacity at constant volume (256.82 K, 7162 kPa): 67.91 ± 1.4 J/K/mol
- molar heat capacity at constant volume (259.03 K, 8839 kPa): 68.48 ± 1.4 J/K/mol
- molar heat capacity at constant volume (261.25 K, 10512 kPa): 68.61 ± 1.4 J/K/mol
- molar heat capacity at constant volume (264.41 K, 2430 kPa): 69.1 ± 1.4 J/K/mol
- molar heat capacity at constant volume (266.66 K, 3950 kPa): 69.19 ± 1.4 J/K/mol
- molar heat capacity at constant volume (268.92 K, 5488 kPa): 70.24 ± 1.4 J/K/mol
- molar heat capacity at constant volume (271.21 K, 7042 kPa): 70.33 ± 1.4 J/K/mol
- molar heat capacity at constant volume (273.5 K, 8593 kPa): 70.2 ± 1.4 J/K/mol
- molar heat capacity at constant volume (275.81 K, 10155 kPa): 70.55 ± 1.4 J/K/mol
- molar heat capacity at constant volume (283.73 K, 2629 kPa): 71.61 ± 1.3 J/K/mol
- molar heat capacity at constant volume (284.6 K, 1745 kPa): 71.3 ± 1.5 J/K/mol
- molar heat capacity at constant volume (286.92 K, 3057 kPa): 71.88 ± 1.5 J/K/mol
- molar heat capacity at constant volume (287.25 K, 4679 kPa): 71.92 ± 1.5 J/K/mol
- molar heat capacity at constant volume (289.25 K, 4373 kPa): 72.23 ± 1.5 J/K/mol
- molar heat capacity at constant volume (289.61 K, 6040 kPa): 71.96 ± 1.4 J/K/mol
- molar heat capacity at constant volume (291.57 K, 5681 kPa): 72.32 ± 1.5 J/K/mol
- molar heat capacity at constant volume (291.99 K, 7411 kPa): 72.36 ± 1.4 J/K/mol
- molar heat capacity at constant volume (293.9 K, 6981 kPa): 72.98 ± 1.5 J/K/mol
- molar heat capacity at constant volume (294.35 K, 8774 kPa): 72.85 ± 1.5 J/K/mol
- molar heat capacity at constant volume (296.28 K, 8309 kPa): 73.15 ± 1.4 J/K/mol
- molar heat capacity at constant volume (296.69 K, 10124 kPa): 72.93 ± 1.5 J/K/mol
- molar heat capacity at constant volume (298.66 K, 9622 kPa): 73.2 ± 1.5 J/K/mol
- molar heat capacity at constant volume (299 K, 11450 kPa): 73.24 ± 1.5 J/K/mol
- molar heat capacity at constant volume (300.98 K, 10901 kPa): 74.35 ± 1.5 J/K/mol
- molar heat capacity at constant volume (301.28 K, 12754 kPa): 73.24 ± 1.5 J/K/mol
- molar heat capacity at constant volume (303.33 K, 12177 kPa): 74.65 ± 1.5 J/K/mol
- molar heat capacity at constant volume (305.66 K, 13418 kPa): 75.09 ± 1.5 J/K/mol
- molar heat capacity at constant volume (306.13 K, 1912 kPa): 74.7 ± 1.5 J/K/mol
- molar heat capacity at constant volume (308.58 K, 3022 kPa): 75.58 ± 1.5 J/K/mol
- molar heat capacity at constant volume (311.04 K, 4140 kPa): 75.62 ± 1.5 J/K/mol
- molar heat capacity at constant volume (313.5 K, 5260 kPa): 76.42 ± 1.5 J/K/mol
- molar heat capacity at constant volume (315.96 K, 6379 kPa): 76.55 ± 1.5 J/K/mol
- molar heat capacity at constant volume (318.43 K, 7498 kPa): 76.59 ± 1.5 J/K/mol
- molar heat capacity at constant volume (320.89 K, 8615 kPa): 77.52 ± 1.5 J/K/mol
- molar heat capacity at constant volume (323.37 K, 9735 kPa): 77.74 ± 1.5 J/K/mol
- molar heat capacity at constant volume (325.84 K, 10852 kPa): 78.18 ± 1.5 J/K/mol
- molar heat capacity at constant volume (328.28 K, 11956 kPa): 78.89 ± 1.5 J/K/mol
- molar heat capacity at constant volume (330.71 K, 13052 kPa): 79.33 ± 1.5 J/K/mol
- molar heat capacity at constant volume (332.33 K, 10672 kPa): 78.89 ± 1.5 J/K/mol
- molar heat capacity at constant volume (334.81 K, 11722 kPa): 79.81 ± 1.5 J/K/mol
- molar heat capacity at constant volume (337.26 K, 12761 kPa): 80.47 ± 1.5 J/K/mol
- molar heat capacity at constant volume (339.76 K, 13813 kPa): 80.65 ± 1.5 J/K/mol
